Entries after “also recorded” stand apart in the source; their conditions may differ.

Data set [1] relates to A2058 human melanoma xenografts. Nature of the data set: Efficacy and body weight in A2058 xenografts (Example 39). The format is in vivo. The following applies: for Tumor Size on PG-D24 / Tumor Size on PG-D28 / Tumor Volume Trace over Time: Mean ± SEM; for Antitumor activity compared with vehicle group: one-way ANOVA, Dunnett. As to the method: Compound 1, encorafenib and dabrafenib were administered to BALB/c nude mice bearing A2058 xenografts orally for 28 days. Compound 1 was dosed twice per day (BID) and dosed at 10 mg/kg from day 0. Encorafenib and dabrafenib were dosed daily (QD) from day 1. Encorafenib was dosed at 35 mg/kg. Dabrafenib was dosed at 100 mg/kg.
Each mouse was inoculated subcutaneously at the right flank with A2058 cells (5×106) in 0.2 mL of PBS supplemented with Matrigel (PBS:Matrigel=1:1) for tumor development. Animals were grouped for efficacy study when the average tumor volume reached 130 mm^3 on day 7 after tumor inoculation and 412 mm^3 for PKPD study on day 14.
At the time of routine monitoring, the animals were checked daily for any effects of tumor growth and treatments on normal behavior such as mobility, food and water consumption (by looking only), body weight gain/loss (body weights were measured twice weekly), eye/hair matting and any other abnormal effect as stated in the protocol. Death and observed clinical signs were recorded on the basis of the numbers of animals within each subset.
Prior to the onset of drug treatment, mice were measured for tumor size in two dimensions using a caliper, and the tumor volume (mm^3) was calculated using formula V=0.5 a×b^2 where a and b are the long and short diameters of the tumor in mm, respectively. Mice were randomized into different treatment groups based on the tumor volume.
The major endpoint was to see if the tumor growth could be delayed or mice could be cured. The tumor size was then used for calculations of T/C value. The T/C value (in percent) is an indication of antitumor effectiveness; T and C are the mean volumes of the treated and control groups, respectively on specified day.
Tumor growth inhibition (TGI) was calculated for each group using the formula: TGI (%) 20=[1−(Ti−T0)/(Ci−C0)]×100; Ti is the average tumor volume of a treatment group on a given day, TO is the average tumor volume of the treatment group on the day of treatment start, Ci is the average tumor volume of the vehicle control group on the same day with Ti, and C0 is the average tumor volume of the vehicle group on the day of treatment start.
A one-way ANOVA followed by Dunnett's multiple comparison test was performed to compare tumor volume among vehicle group and treatment groups. All data were analyzed using GraphPad Prism, * indicates p<0.01, **** indicates p<0.0001 and ns indicates p>0.05.

The test system of data set [2] is p-ERK. Briefly: Western Blot of p-ERK and ERK in A2058 tumor. The format is in vivo, human. Particulars: single oral dose; Compound 1 10 mg/kg, encorafenib 35 mg/kg, dabrafenib 100 mg/kg. The method, then: For the PKPD study, agents were administered to BALB/c nude mice bearing A2058 human melanoma xenografts. Compound 1, encorafenib and dabrafenib were dosed once orally on day 1. Compound 1 was dosed at 10 mg/kg, encorafenib was dosed at 35 mg/kg and dabrafenib was dosed at 100 mg/kg.
Previously snap-frozen samples were retrieved from −80° C. ultralow freezer, and 30-100 mg of tumor tissue was cut up. The tissue samples were placed in a 2 mL microcentrifuge tube, and 450 μL of RIPA buffer containing 1% Protease inhibitor cocktail and 1% phosphate inhibitor cocktail 2 were added to the tube. Tumor samples were grinded with Tissuelyser at 50 Hz for five minutes, and the tissue lysates were kept on ice for thirty minutes. Tissue lysates were centrifuged at 15,000 rpm at 4° C. for ten minutes. The supernatants were gently transferred to a new microcentrifuge tube and kept of ice. Protein concentrations in the supernatants were measured using the Pierce™ BCA Protein Assay Kit. Based on the result of BCA protein quantification, the samples were diluted to the same final concentration of 4 μg/μL using RIPA buffer, 4×LDS sample buffer, and 10× sample reducing agent. Diluted samples were heated at 100° C. for ten minutes. Remaining denatured samples were used for western blot analysis or kept in the −80° C. ultralow freezer for long term storage.
Extracted protein samples (5 μL per slot) were loaded to NuPAGE® Novex 4-12% Bis-Tris gel. Electrophoresis was run with MES running buffer at 80 V for thirty minutes, and 120 V for ninety minutes. Protein samples were transferred to nitrocellulose (NC) membranes with iBlot® 2 Gel Transfer Device (P3, seven minutes). The membrane was cut and parts of interest were kept. The membrane was washed with 5 to 10 mL of 1×TBST once for five minutes. Non-specific protein was blocked by 5-10 mL of 1×TBST with 5% nonfat milk at room temperature for one hour. The membrane was washed with 5-10 mL 1×TBST three times for five minutes each. […] Samples were imaged, and chemiluminescence was detected by Amersham Imager 680.

For data set [3], the system named is BRAF V600E mutant A375-luciferase intracranial model. Briefly: Efficacy in A375-luciferase intracranial model. The following applies: 35 mg/kg PO QD; vehicle median survival 18 days.
Method: For the efficacy study, agents were tested in A375 human melanoma cancer cell derived xenografts (CDX). […] The A375 tumor cells were maintained in vitro in DMEM medium supplemented with 10% fetal bovine serum and 1% Penicillin-Streptomycin at 37° C. in an atmosphere of 5% CO2 in air. The tumor cells were routinely subcultured twice weekly. The cells growing in an exponential growth phase were harvested and counted for tumor inoculation.
For this CNS study, A375 cells with a luciferase tag for tracking tumor cell signal, were injected intracranially into 6-8 week old female BALB/c nude mice. […] The mice were anaesthetized, restrained, and sterilized prior to surgery. […] A 2 mm hole was created to the right of the anterior fontanel and 0.5 mm above the coronal on the skull with a cranial drill. Cell suspensions in 20% Matrigel were mixed and aspirated into the injector carefully to avoid bubbles and wiped to avoid extracranial tumorigenesis. The needle was inserted vertically into the cranial hole and the cell mixture was slowly injected for two minutes and held for another minute to decrease the drainage of the cell suspension. The wound was closed, and a subcutaneous injection of 5 mg/kg Meloxicam was given to relieve the pain and continued for three days. The mice were monitored closely until they woke up after the surgery. After inoculation, the animals were checked daily for morbidity and mortality.
The administration of the test agents began three days after inoculation. […] Measurements for the presence of the A375 luciferase signal within the CNS were done with IVIS Lumina III machine. Images were collected twice weekly to follow the growth of the models. The tumor-bearing mice were weighed and intraperitoneally administered luciferin (Perkin Elmer Inc-122799) at a dosage of 150 mg/kg. After ten minutes, mice were pre-anesthetized with the mixture gas of oxygen and isoflurane. The bioluminescence value at fifteen minutes post luciferin injection was recorded as the final value and plotted. The endpoint for individual mice was reached when the mouse body weight decreased by 20% when compared to their starting weight.
The luciferase signal for the mice removed from study were not carried forward, so a sudden drop in luciferase signal over time is due to mice with a heavy tumor burden being terminated and their high luciferase signal not being carried forward.
Setting [4] is: PG-D24, Compound 1 10 mg/kg BID, encorafenib 35 mg/kg QD, dabrafenib 100 mg/kg QD.
Setting [5] is: PG-D24, Compound 1 10 mg/kg p.o. BID, Encorafenib 35 mg/kg p.o. QD, Dabrafenib 100 mg/kg p.o. QD.
Setting [6] is: PG-D24, treated / control average tumor volume, Compound 1 10 mg/kg p.o. BID, Encorafenib 35 mg/kg p.o. QD, Dabrafenib 100 mg/kg p.o. QD.
Setting [7] is: PG-D28, Compound 1 10 mg/kg p.o. BID, Encorafenib 35 mg/kg p.o. QD, Dabrafenib 100 mg/kg p.o. QD.
[8] abbreviates: PG-D28, treated / control average tumor volume, Compound 1 10 mg/kg p.o. BID, Encorafenib 35 mg/kg p.o. QD, Dabrafenib 100 mg/kg p.o. QD.
Where [9] appears, read: day 0 (baseline), Compound 1 10 mg/kg p.o. BID × 28 days, Encorafenib 35 mg/kg p.o. QD × 28 days, Dabrafenib 100 mg/kg p.o. QD × 28 days.
The mark [10] stands for this setting: day 3, Compound 1 10 mg/kg p.o. BID, Encorafenib 35 mg/kg p.o. QD, Dabrafenib 100 mg/kg p.o. QD.
[11] abbreviates: day 7, Compound 1 10 mg/kg p.o. BID, Encorafenib 35 mg/kg p.o. QD, Dabrafenib 100 mg/kg p.o. QD.
[12] abbreviates: day 10, Compound 1 10 mg/kg p.o. BID, Encorafenib 35 mg/kg p.o. QD, Dabrafenib 100 mg/kg p.o. QD.
[13] abbreviates: day 14, Compound 1 10 mg/kg p.o. BID, Encorafenib 35 mg/kg p.o. QD, Dabrafenib 100 mg/kg p.o. QD.
[14] abbreviates: day 17, Compound 1 10 mg/kg p.o. BID, Encorafenib 35 mg/kg p.o. QD, Dabrafenib 100 mg/kg p.o. QD.
The mark [15] stands for this setting: day 21, Compound 1 10 mg/kg p.o. BID, Encorafenib 35 mg/kg p.o. QD, Dabrafenib 100 mg/kg p.o. QD.
[16] abbreviates: day 24, Compound 1 10 mg/kg p.o. BID, Encorafenib 35 mg/kg p.o. QD, Dabrafenib 100 mg/kg p.o. QD.
Where [17] appears, read: day 28, Compound 1 10 mg/kg p.o. BID, Encorafenib 35 mg/kg p.o. QD, Dabrafenib 100 mg/kg p.o. QD.

For `CC(C)(C)c1nc(-c2cccc(NS(=O)(=O)c3c(F)cccc3F)c2F)c(-c2ccnc(N)n2)s1` [dabrafenib], in data set [1] (100 mg/kg, Group 4, PG-D21 (one mouse also PG-D28)), the “Body weight loss (individual mice)” value was “over 10%”. Besides, the results for the T/C in data set [1] (setting [4]), in data set [1] (setting [6]) and in data set [1] (setting [8]) were 77.37%, 77.37% and 77.13%, respectively. Also, the results for the TGI in data set [1] (setting [4]), in data set [1] (setting [5]) and in data set [1] (setting [7]) were 23.87%, 23.87% and 23.96%, respectively. The “TV (mean tumor volume)” value in data set [1] (setting [4]) is recorded as 1948 mm^3. In data set [1] (setting [5]), the “Tumor Size on PG-D24” value came out at 1948 ± 150 mm^3. Also, the “Antitumor activity compared with vehicle group” value in data set [1] (PG-D24) is listed as “no significant antitumor activity”. For the same compound, in data set [1] (setting [7]), the “Tumor Size on PG-D28” value was 2227 ± 140 mm^3. For the same compound, the “Tumor Volume Trace over Time” value stood at 130 ± 4 mm^3 in data set [1] (setting [9]); 203 ± 6 mm^3 in data set [1] (setting [10]); 361 ± 28 mm^3 in data set [1] (setting [11]); 572 ± 29 mm^3 in data set [1] (setting [12]); 921 ± 74 mm^3 in data set [1] (setting [13]); 1232 ± 105 mm^3 in data set [1] (setting [14]). Besides, the “Tumor Volume Trace over Time” value in data set [1] (setting [15]) is reported as 1558 ± 132 mm^3; in data set [1] (setting [16]) it was 1948 ± 150 mm^3; in data set [1] (setting [17]), 2227 ± 140 mm^3. For the same compound, in data set [2], the “Expression of p-ERK in A2058 tumor” value is “inhibited the expression of p-ERK from six to twenty-four hours post dose; also recorded: inhibited the expression of p-ERK from six hours to twenty-four hours post dose”.
Consider `COC(=O)N[C@@H](C)CNc1nccc(-c2cn(C(C)C)nc2-c2cc(Cl)cc(NS(C)(=O)=O)c2F)n1` [encorafenib], for which the T/C (in general, the ratio of treated to control) in data set [1] (setting [4]) turned out to be 77.22%; in data set [1] (setting [6]), 77.22%; in data set [1] (setting [8]), 81.52%. Also, the TGI (commonly the reduction of tumour growth relative to the control group) in data set [1] (setting [4]) was 24.04%; in data set [1] (setting [5]), 24.04%; in data set [1] (setting [7]), 19.37%. Also, the “TV (mean tumor volume)” value in data set [1] (setting [4]) was 1944 mm^3. Moreover, the “Tumor Size on PG-D24” value in data set [1] (setting [5]) is on record as 1944 ± 160 mm^3. Further, in data set [1] (PG-D24), the “Antitumor activity compared with vehicle group” value is reported as “no significant antitumor activity”. Also, in data set [1] (setting [7]), the “Tumor Size on PG-D28” value came to 2354 ± 201 mm^3. Besides, the “Tumor Volume Trace over Time” value in data set [1] (setting [9]) is 130 ± 4 mm^3; in data set [1] (setting [10]) it was 189 ± 9 mm^3; in data set [1] (setting [11]) it was 302 ± 23 mm^3; in data set [1] (setting [12]), 477 ± 45 mm^3; in data set [1] (setting [13]) it was 756 ± 64 mm^3; in data set [1] (setting [14]), 1122 ± 120 mm^3. Further, the “Tumor Volume Trace over Time” value in data set [1] (setting [15]) is listed as 1472 ± 142 mm^3; in data set [1] (setting [16]) it was 1944 ± 160 mm^3; in data set [1] (setting [17]), 2354 ± 201 mm^3. Moreover, the “Expression of p-ERK in A2058 tumor” value in data set [2] is recorded as “inhibited the expression of p-ERK from six to twenty-four hours post dose; also recorded: inhibited the expression of p-ERK from six hours to twenty-four hours post dose”. Besides, the “Survival (average)” value in data set [3] came out at 46 days.
